For 81 molecules, RP-LC retention time results are on record in the METLIN SMRT retention time set (Domingo-Almenara et al. 2019).

The series in a line: gradient 5% acetonitrile 3 min, to 50% in 2 min, to 85% in 15 min, held 3 min, 100 µL/min. The conditions noted are these: column: Zorbax Extend-C18 2.1 x 50 mm; eluents: water / acetonitrile, 0.1% formic acid. Put shortly:
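Over 3 months, pure standards in mixtures of ~100 molecules were run by HPLC coupled to a quadrupole time-of-flight mass spectrometer in positive and negative ionization mode. The column was a Zorbax Extend-C18 (2.1 × 50 mm, 1.8 μm) at 100 μL/min, eluted with water and acetonitrile each holding 0.1% formic acid, with 40 μL dead and 900 μL dwell volumes. Retention time was determined from adduct peaks chosen by software and checked manually.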
`CCc1nc2cc(N3CCC(C(=O)NCCN4CCCCC4)CC3)cnc2nc1CC` yielded an RP-LC retention time of 580 s.
In turn, `Cc1oc(C2CCN(C(=O)Nc3ccc(F)cc3)CC2)nc1C(=O)N1CCOCC1` gave an RP-LC retention time of 686 s.
As for `CCC(=O)N1CCc2cc(N3CC(C(=O)Nc4cccc(C)c4)CC3=O)ccc21` (stereo unspecified), the RP-LC retention time is 693 s.
For `O=C(NC1CC1)c1ccc(N2CCC(NCc3cc(Br)ccc3O)C2)nc1` (stereo unspecified), the RP-LC retention time turned out to be 576 s.
For `Cc1ccc(C)c(N2CCN(C(=O)C3CCN(c4cnc5nccnc5c4)CC3)CC2)c1` the value was 907 s; for `Cc1ccc(CN2CCC(CNC(=O)c3c(C)oc4nc(C)nc(N5CCOCC5)c34)CC2)cc1`, 629 s.
The figure for `COc1ccc(-n2cc(C(=O)Oc3cccnc3)c3ccccc3c2=O)cc1` is 911 s.
For `CN1C(=O)c2cc(C(=O)NCCCc3ccccc3)nn2CC1(C)C(=O)NC1CCCCC1` (stereo unspecified), the RP-LC retention time worked out at 854 s.
For `Cc1nn2c(CNC(=O)c3cccnc3)c(-c3ccccc3)nc2s1` the value was 655 s; for `Nc1nccn(Cc2ccc(F)cc2F)c1=O`, 577 s; for `COc1ccccc1C(=O)N1CC(Oc2ccc(-c3nc(-c4ccccc4)no3)cc2)C1`, 1160 s.
In turn, `O=C(NC1CC1)c1cc(-c2cccs2)on1` came in with an RP-LC retention time of 788 s.
As to `O=C(CCc1ccccc1)NC1CCS(=O)(=O)C1` (stereo unspecified), the RP-LC retention time came out at 619 s.
Take `Cc1nnc(-c2nnc(N3CCCC3)c3ccccc23)o1`: the RP-LC retention time amounted to 568 s.
In the case of `CCc1cccc(NC(=O)Cn2nc(N3CCC(C)CC3)c3ccccc3c2=O)c1`, the RP-LC retention time was 1220 s.
As to `CCS(=O)(=O)N1CCCc2cc(C(=O)Nc3ccc(Br)cc3)ccc21`, the RP-LC retention time amounted to 1030 s.
Molecule `CC1CCN(CC2CCN(S(=O)(=O)c3ccc(F)c(Cl)c3)CC2)CC1` yielded an RP-LC retention time of 688 s.
The figure for `CC(C)(C)c1csc(-c2csc(S(=O)(=O)NCc3ccc(F)c(Cl)c3)c2)n1` is 1280 s; for `O=C(c1ccc2c(c1)nnn2Cc1ccccc1)N1CCN(c2ncccn2)CC1` it is 766 s; for `O=C(NCc1csc(-c2ccccc2)n1)C1CCN(S(=O)(=O)c2cccc(Cl)c2)CC1` it is 962 s.
Take `O=C(Cn1nc(N2CCOCC2)c2ccccc2c1=O)Nc1cccc(Br)c1`: the RP-LC retention time was determined as 844 s.
For `CCOc1ccc(S(=O)(=O)NCCn2nc(C)cc2C)cc1F` the value was 731 s; for `O=C(NCCOc1ccccc1)Nc1ccc(OC(F)(F)F)cc1`, 910 s; for `COc1cccc(Nc2cc(C)nc3ccnn23)c1`, 610 s.
The figure for `Cc1ccccc1CNC(=O)C1CCN(S(C)(=O)=O)c2ccccc2O1` (stereo unspecified) is 841 s; for `O=c1oc2cc(O)cc(O)c2c2ccccc12` it is 699 s; for `O=C(O)c1cn(-c2cccc(Br)c2)nn1` it is 723 s.
As to `O=C(Nc1nccs1)c1cccc(NS(=O)(=O)c2ccc(F)cc2)c1`, the RP-LC retention time is 751 s.
`CN1CCCC1c1nc(C2CN(S(=O)(=O)Cc3ccccc3F)C2)no1` (stereo unspecified) yielded an RP-LC retention time of 626 s.
In the case of `Fc1ccccc1-c1noc(N2CCCCC2)n1`, the RP-LC retention time turned out to be 982 s.
For `CC(C)Sc1ccc(CC(=O)NCC2(O)CCCC2)cc1` the value was 752 s; for `CC1CCCN(C(=O)C2CCN(c3cc(N4CCCCC4)ncn3)CC2)C1` (stereo unspecified), 683 s.
The figure for `CC(=O)c1cccc(NC(=O)C2CC(=O)N(c3ccc4c(c3)CCN4C(C)=O)C2)c1` (stereo unspecified) is 668 s; for `CCN1CCCn2nc(C3CCN(C(=O)c4ccc5c(c4)OCO5)CC3)cc2C1=O` it is 628 s.
For `CCn1nnc2c(N3CCN(S(=O)(=O)c4cccc(Cl)c4)CC3)ncnc21`, the RP-LC retention time turned out to be 880 s.
Molecule `NC(=O)C1CCN(C2CC(=O)N(c3ccc4c(c3)OCCO4)C2=O)CC1` (stereo unspecified) had an RP-LC retention time of 568 s.
The figure for `Cc1ccc(-c2cc(C(=O)N3CCN(C)CC3)[nH]n2)cc1C` is 603 s; for `CCn1nc(C(=O)Nc2nc3c(s2)CCc2ccccc2-3)cc1C` it is 1060 s; for `CCC(=O)n1nc(-c2ccc(C)c(C)c2)nc1N` it is 923 s.
The figure for `O=C(CS(=O)Cc1cnn(-c2ccccc2)c1-n1cccc1)N1CCN(C2CCCCC2)CC1` (stereo unspecified) is 643 s; for `Cc1ccc(CC(=O)Nc2ccc(-c3nc(Cn4nc(C)c(C)c4C)c(C)o3)cc2)cc1` it is 998 s.
As for `CC(C)CCNC(=O)[C@H](CC(C)C)NC(=O)[C@H]1O[C@@H]1C(=O)O`, the RP-LC retention time stood at 841 s.
Regarding `CC1CCN(S(=O)(=O)c2ccc(-c3nnc(C(=O)NCc4ccccc4Cl)o3)cc2)CC1`, the RP-LC retention time is 1110 s.
For `CC(C)N1C(=O)C(C)(C(=O)Nc2ccc(F)cc2F)Oc2cccnc21` (stereo unspecified) the value was 989 s.
Molecule `COCCNC(=O)C1CCN(c2ncnc3c2oc2ccccc23)CC1` returned an RP-LC retention time of 617 s.
The figure for `Cc1c(-c2nnc(C3CC3)o2)c(S(=O)(=O)N2CCN(C(C)C)CC2)c(C)n1C` is 610 s.
With `N[C@@H](CC(=O)N1CCn2c(nnc2C(F)(F)F)C1)Cc1cc(F)c(F)cc1F`, the RP-LC retention time is 675 s.
For `CCOc1ccc2cccc(NC(=O)c3ccc(S(=O)(=O)N(C)C)cc3)c2n1` the value was 1140 s; for `CCn1cc(S(=O)(=O)N2CC(F)(F)C[C@H]2COc2cccnc2)cn1`, 636 s; for `CCN1c2ccc(C)cc2C(=O)NC12CCN(C(=O)Cc1ccc(C)cc1)CC2`, 887 s.
The molecule `C=CCn1c(C)c(CC(=O)NCCC)c(=O)n2nc(-c3ccccc3)nc12` came in with an RP-LC retention time of 730 s.
For the molecule `CN(C)C(=O)c1ccc(N2CCc3ccccc32)s1`, the RP-LC retention time was found to be 907 s.
Regarding `CC(=O)NCC(=O)N1CCCn2cc(-c3ccc4c(c3)OCO4)nc21`, the RP-LC retention time turned out to be 487 s.
`Fc1cccc(F)c1-c1nc(-c2ccc3nncn3c2)no1` gave an RP-LC retention time of 765 s.
The figure for `CCOC(=O)c1ccc(NC(=O)C2CCN(C(=O)C3Sc4ccccc4NC3=O)CC2)cc1` (stereo unspecified) is 805 s; for `Cc1cc(N2CCN(C(=O)c3ccc(F)cc3Cl)CC2)nc(N2CCOCC2)n1` it is 637 s; for `CCCn1cc(C(=O)Nc2ccc(OC)cc2C)c(=O)c2ccc(C)nc21` it is 1130 s.
For `CC(C)NC(=O)c1ccc2ccnc(N3CCN(c4ccc(Cl)cc4)CC3)c2c1` the value was 816 s.
The molecule `O=S(=O)(c1cccc(-c2cn3ccccc3n2)c1)N1CCCC1` had an RP-LC retention time of 607 s.
On to `O=C1C2CCCN2C(c2ccncc2)N1c1cccc(Cl)c1` (stereo unspecified), for which the RP-LC retention time is 587 s.
For `O=C(NCCCN1CCc2ccccc2C1)c1ccnc(-c2cccs2)c1` the value was 646 s; for `Cc1cc(N2CCN(S(=O)(=O)c3cc(F)ccc3F)CC2)nc(N2CCCC2)n1`, 717 s.
Molecule `CCOC(=O)c1nc(N2CCN(c3cc(Cl)ccc3C)CC2)c2ccccc2n1` returned an RP-LC retention time of 1140 s.
For `Cn1nc(C(=O)N2CCCN(c3cc(-c4ccc(Cl)cc4)[nH]n3)CC2)c2ccccc21` the value was 805 s; for `O=C(NCc1ccc2c(c1)OCO2)c1nc(-c2ccnc(N3CCCCC3)c2)no1`, 691 s; for `Cc1csc(-c2cc(S(=O)(=O)NCC3CCCCC3)cn2CC(=O)N2CCCCC2)n1`, 1100 s.
Molecule `O=C(NC(Cc1ccccc1)C(=O)N1CCN(c2ccccn2)CC1)c1ccc(Cl)cc1` (stereo unspecified) yielded an RP-LC retention time of 692 s.
For `Cc1cc(N2C=C(C(=O)N3CCOCC3)S(=O)(=O)c3ccccc32)ccc1Br` the value was 855 s; for `CCCN1CCN(CCCNC(=O)c2c(-c3ccc(Br)s3)noc2C)CC1`, 609 s.
As for `Cc1cccn2cc(C(=O)NCc3ccccc3Cl)nc12`, the RP-LC retention time stood at 704 s.
For `CN1C(=O)Cc2cc(C(=O)N3CCN(c4ccc(Cl)cc4)CC3)ccc21` the value was 813 s.
The figure for `Cc1cccc(N2CCN(Cc3nc(-c4ccc(N5CCC(C)CC5)nc4)no3)CC2)c1C` is 1280 s; for `CCNC(=O)C1CCN(c2cc(SCC(=O)Nc3ccccc3OCC)ncn2)CC1` it is 760 s; for `N#Cc1cc(NC(=O)Cc2nnc(-c3ccc4ncccc4c3)o2)ccc1F` it is 720 s.
With `CCC(=O)NCc1nc2c(n1CC)CN(C(=O)c1ccc(Cl)cc1)CC2`, the RP-LC retention time is 529 s.
The figure for `O=C(CSc1nnc(-c2ccccc2F)o1)NC1CCCCC1` is 782 s.
The figure for `CCn1cc(CCN2CCC(C(=O)NC3CCCCC3)CC2)c2cccnc21` is 619 s; for `CC1=NS(=O)(=O)N(C)C=C1C(=O)OCc1ccccc1` it is 882 s; for `CCn1c(=O)c2c(cc(C)n2C)n(CC(=O)Nc2cc(Cl)ccc2C)c1=O` it is 810 s.
For `Cc1nc(-c2noc(-c3ccccc3)n2)cn1CC(=O)Nc1ccc(Cl)cc1` the value was 885 s.
The molecule `COc1ccc(C(=O)Cn2nc3n(CC(C)C)c(=O)c4ccccc4n3c2=O)cc1OC` displayed an RP-LC retention time of 951 s.
